Experiment [1] has as its target T1, Human GlucR (Homo sapiens, UniProt P47871).
T1 construct: expressed in transfected cells
Description: cAMP activity assay (assay 1) in assay medium. Format: cell-based. The settings on record: Table 4, additional peptides, read-out: hGlucR EC50.
Description: (§1) All sample dilutions were made in duplicate.
(§2) A frozen cryo-vial of cells expressing the receptor of interest was thawed rapidly in a water-bath, transferred to pre-warmed assay media and spun at 240×g for 5 minutes. Cells were re-suspended in assay media at an optimized concentration (e.g. hGCGR cells at 1×10^5 cells/ml, hGLP-1R and hGIPR cells at 0.5×10^5 cells/ml).
(§3) To this, 5 μL cell suspension was added and the plates incubated at room temperature for 30 minutes.
(§4) cAMP levels were measured using a commercially available cAMP dynamic 2 HTRF kit (Cisbio, Cat #62AM4PEJ), following the two step protocol as per manufacturer's recommendations. In brief; anti-cAMP cryptate (donor fluorophore) and cAMP-d2 (acceptor fluorophore) were made up separately by diluting each 120 in conjugate & lysis buffer provided in the kit. 5 μL anti-cAMP cryptate was added to all wells of the assay plate, and 5 μL cAMP-d2 added to all wells except non-specific binding (NSB) wells, to which conjugate and lysis buffer was added.

Experiment [2] has as its target Human GLP1R (Homo sapiens, UniProt P43220). Description: cAMP activity assay (assay 1) in assay medium. Format: cell-based. The settings on record: Table 4, additional peptides, read-out: hGLP1R EC50.
Description: as §1, §2, §3, §4
For experiment [3], the system named is diet induced obesity (DIO) mouse model. Description: Diet induced obesity (DIO) mouse model, study A. Type of experiment: in vivo. The text has this: Female C57/Bl6JHsdOla (obtained from Harlan Laboratories. UK) were started on a high fat diet of D12492 (Research Diets, NJ, USA) and a chocolate confection, delicato ball (Delicata Bakverk, Sweden) at 9-11 weeks of age, and were maintained on the diet for 16 weeks prior to arrival to the animal facility, during a three week acclimation period and during drug treatment, caloric content of the two components of the diet is shown in Table 11. The mice were divided into 9 groups (n=5-6), and treatment was started at 29 weeks of age.
The body weight of the animals was monitored daily throughout die dosing period. At day 14, blood samples for the measurement of plasma glucose and insulin from conscious mice were obtained after a 4-hour fasting period. Mice were then anaesthetized using isofluorane and terminal blood was collected from the capillary bed behind the eye. The following parameters were measured: blood chemistry measurements of triglycerides, total cholesterol, non-esterified fatty acids (NEFA), beta-hydroxybutyrate and fibroblast growth factor 21 (FGF21) (Tables 14 and 15 below).

The test system is the same in experiment [4]. Description: Diet induced obesity (DIO) mouse model, study B. Type of experiment: in vivo. Here is the method: The body weight of the animals was monitored daily throughout the dosing period. At day 14, blood samples for the measurement of plasma glucose and insulin from conscious mice were obtained after a 4-hour fasting period. Mice were then anaesthetized using isoflourane and terminal blood was collected from the capillary bed behind the eye. The following parameters were measured: blood chemistry measurements of triglycerides, total cholesterol, non-esterified fatty acids (NEFA), beta-hydroxybutyrate and fibroblast growth factor 21 (FGF21) (Table 16 and Table 17 below).

Setting [5] is: 27 nmol/kg sc twice daily, day 14.
[6] abbreviates: 27 nmol/kg sc twice daily, day 14, 4-hour fasting.

Numbered stars: 1 amine (or outer) side, 2 acyl side, 3 side chain; on linkers, the order of the positions; unused ones are H or OH. Side chains are listed from the residue outwards. Peptide text beside a SMILES is read from it. * marks the point of attachment. γGlu = O=C(O)[C@H](CCC(=O)[*:2])N[*:1]; Palmitoyl = CCCCCCCCCCCCCCCC(=O)*; Ahx = NCCCCCC(=O)O; βAla = NCCC(=O)O

Sequence of Human GLP1R (P43220 24-463): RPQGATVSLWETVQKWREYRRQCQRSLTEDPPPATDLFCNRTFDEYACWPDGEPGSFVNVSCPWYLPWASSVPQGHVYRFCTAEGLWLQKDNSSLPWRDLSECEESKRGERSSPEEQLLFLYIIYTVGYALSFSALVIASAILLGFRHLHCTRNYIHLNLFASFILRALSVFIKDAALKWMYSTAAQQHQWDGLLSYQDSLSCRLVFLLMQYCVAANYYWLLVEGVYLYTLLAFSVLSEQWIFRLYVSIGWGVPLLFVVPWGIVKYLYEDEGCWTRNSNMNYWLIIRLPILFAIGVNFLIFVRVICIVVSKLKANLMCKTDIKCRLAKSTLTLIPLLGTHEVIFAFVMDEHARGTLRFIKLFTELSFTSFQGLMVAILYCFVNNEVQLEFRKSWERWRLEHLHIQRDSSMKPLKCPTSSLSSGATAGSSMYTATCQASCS
T1 sequence (P47871 26-477): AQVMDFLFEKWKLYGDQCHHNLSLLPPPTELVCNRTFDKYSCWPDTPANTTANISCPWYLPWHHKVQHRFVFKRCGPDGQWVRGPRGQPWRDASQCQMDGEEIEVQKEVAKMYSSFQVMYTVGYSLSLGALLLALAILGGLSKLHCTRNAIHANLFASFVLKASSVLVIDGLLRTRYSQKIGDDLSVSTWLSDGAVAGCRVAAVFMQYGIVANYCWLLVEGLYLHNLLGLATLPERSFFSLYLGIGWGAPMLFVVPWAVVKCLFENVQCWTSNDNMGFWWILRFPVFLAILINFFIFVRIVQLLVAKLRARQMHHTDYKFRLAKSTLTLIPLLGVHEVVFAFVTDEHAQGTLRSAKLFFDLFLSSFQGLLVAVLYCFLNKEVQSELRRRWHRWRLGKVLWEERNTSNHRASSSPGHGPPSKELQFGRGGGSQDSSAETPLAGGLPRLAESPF

Take `CCCCCCCCCCCCCCCC(=O)NCCCCCC(=O)NCCCC[C@H](NC(=O)[C@H](CO)NC(=O)[C@H](CC(=O)O)NC(=O)[C@H](CC(C)C)NC(=O)[C@H](Cc1ccc(O)cc1)NC(=O)[C@H](CCC(=O)O)NC(=O)[C@H](CO)NC(=O)[C@H](Cc1ccc(O)cc1)NC(=O)[C@H](CC(=O)O)NC(=O)[C@H](CO)NC(=O)[C@@H](NC(=O)[C@H](Cc1ccccc1)NC(=O)[C@@H](NC(=O)CNC(=O)[C@H](CCC(N)=O)NC(=O)CNC(=O)[C@@H](N)Cc1c[nH]cn1)[C@@H](C)O)[C@@H](C)O)C(=O)N[C@@H](CCCNC(=N)N)C(=O)N[C@@H](C)C(=O)N[C@@H](C)C(=O)N[C@@H](CC(=O)O)C(=O)N[C@@H](Cc1ccccc1)C(=O)N[C@H](C(=O)N[C@@H](C)C(=O)N[C@@H](Cc1c[nH]c2ccccc12)C(=O)N[C@@H](CC(C)C)C(=O)N[C@@H](CCC(=O)O)C(=O)N[C@@H](CCCNC(=N)N)C(=O)NCC(=O)NCC(N)=O)C(C)C` [g683]: in experiment [1], the 50% effective concentration (EC50) worked out at 0.372 nM.

As to `CCCCCCCCCCCCCCCC(=O)NCCC(=O)NCCCC[C@H](NC(=O)[C@H](CO)NC(=O)[C@H](CC(=O)O)NC(=O)[C@H](CC(C)C)NC(=O)[C@H](Cc1ccc(O)cc1)NC(=O)[C@H](CCC(=O)O)NC(=O)[C@H](CO)NC(=O)[C@H](Cc1ccc(O)cc1)NC(=O)[C@H](CC(=O)O)NC(=O)[C@H](CO)NC(=O)[C@@H](NC(=O)[C@H](Cc1ccccc1)NC(=O)[C@@H](NC(=O)CNC(=O)[C@H](CCC(=O)O)NC(=O)[C@H](CO)NC(=O)[C@@H](N)Cc1c[nH]cn1)[C@@H](C)O)[C@@H](C)O)C(=O)N[C@@H](CCCNC(=N)N)C(=O)N[C@@H](C)C(=O)N[C@@H](CCCNC(=N)N)C(=O)N[C@@H](CC(=O)O)C(=O)N[C@@H](Cc1ccccc1)C(=O)N[C@H](C(=O)N[C@@H](C)C(=O)N[C@@H](Cc1c[nH]c2ccccc12)C(=O)N[C@@H](CC(C)C)C(=O)N[C@@H](CCC(=O)O)C(=O)N[C@@H](C)C(=O)NCC(=O)NCC(N)=O)C(C)C` [g734] (H-HSEGTFTSDYSEYLDSK([βAla-Palmitoyl])RARDFVAWLEAGG-NH2; N-terminus assumed), the EC50 in experiment [1] was found to be 8280 nM.

As to `CCCCCCCCCCCCCCCC(=O)NCCCCCC(=O)NCCCC[C@H](NC(=O)[C@H](CO)NC(=O)[C@H](CC(=O)O)NC(=O)[C@H](CC(C)C)NC(=O)[C@H](Cc1ccc(O)cc1)NC(=O)[C@H](CCC(=O)O)NC(=O)[C@H](CO)NC(=O)[C@H](Cc1ccc(O)cc1)NC(=O)[C@H](CC(=O)O)NC(=O)[C@H](CO)NC(=O)[C@@H](NC(=O)[C@H](Cc1ccccc1)NC(=O)[C@@H](NC(=O)CNC(=O)[C@H](CCC(N)=O)NC(=O)CNC(=O)[C@@H](N)Cc1c[nH]cn1)[C@@H](C)O)[C@@H](C)O)C(=O)N[C@@H](CCCNC(=N)N)C(=O)N[C@@H](C)C(=O)N[C@@H](CCCNC(=N)N)C(=O)N[C@@H](CC(=O)O)C(=O)N[C@@H](Cc1ccccc1)C(=O)N[C@H](C(=O)N[C@@H](C)C(=O)N[C@@H](Cc1c[nH]c2ccccc12)C(=O)N[C@@H](CC(C)C)C(=O)N[C@@H](CCC(=O)O)C(=O)N[C@@H](CCCNC(=N)N)C(=O)NCC(=O)NCC(N)=O)C(C)C` [g684] (H-HGQGTFTSDYSEYLDSK([Ahx-Palmitoyl])RARDFVAWLERGG-NH2; N-terminus assumed), the EC50 in experiment [2] was 0.0161 nM.

For `CCCCCCCCCCCCCCCC(=O)N[C@@H](CCC(=O)NCCCC[C@H](NC(=O)[C@H](CO)NC(=O)[C@H](CC(=O)O)NC(=O)[C@H](CC(C)C)NC(=O)[C@H](Cc1ccc(O)cc1)NC(=O)[C@H](CCC(=O)O)NC(=O)[C@H](CO)NC(=O)[C@H](Cc1ccc(O)cc1)NC(=O)[C@H](CC(=O)O)NC(=O)[C@H](CO)NC(=O)[C@@H](NC(=O)[C@H](Cc1ccccc1)NC(=O)[C@@H](NC(=O)CNC(=O)[C@H](CCC(N)=O)NC(=O)CNC(=O)[C@@H](N)Cc1c[nH]cn1)[C@@H](C)O)[C@@H](C)O)C(=O)N[C@@H](CCCNC(=N)N)C(=O)N[C@@H](C)C(=O)N[C@@H](CCCNC(=N)N)C(=O)N[C@@H](CC(=O)O)C(=O)N[C@@H](Cc1ccccc1)C(=O)N[C@H](C(=O)N[C@@H](C)C(=O)N[C@@H](Cc1c[nH]c2ccccc12)C(=O)N[C@@H](CC(C)C)C(=O)N[C@H](C(=O)N[C@@H](C)C(=O)NCC(=O)NCC(N)=O)C(C)C)C(C)C)C(=O)O` [g735] (H-HGQGTFTSDYSEYLDSK([γGlu-Palmitoyl])RARDFVAWLVAGG-NH2; N-terminus assumed), the EC50 in experiment [2] came out at 0.161 nM.

For `CCCCCCCCCCCCCCCC(=O)N[C@@H](CCC(=O)NCCCC[C@H](NC(=O)[C@H](CO)NC(=O)[C@H](CC(=O)O)NC(=O)[C@H](CC(C)C)NC(=O)[C@H](Cc1ccc(O)cc1)NC(=O)[C@H](CCCCN)NC(=O)[C@H](CO)NC(=O)[C@H](Cc1ccc(O)cc1)NC(=O)[C@H](CC(=O)O)NC(=O)[C@H](CO)NC(=O)[C@@H](NC(=O)[C@H](Cc1ccccc1)NC(=O)[C@@H](NC(=O)CNC(=O)[C@H](CCC(=O)O)NC(=O)[C@H](CO)NC(=O)[C@@H](N)Cc1c[nH]cn1)[C@@H](C)O)[C@@H](C)O)C(=O)N[C@@H](CCCNC(=N)N)C(=O)N[C@@H](C)C(=O)N[C@@H](CCC(=O)O)C(=O)N[C@@H](CC(=O)O)C(=O)N[C@@H](Cc1ccccc1)C(=O)N[C@H](C(=O)N[C@@H](CCC(=O)O)C(=O)N[C@@H](Cc1c[nH]c2ccccc12)C(=O)N[C@@H](CC(C)C)C(=O)N[C@H](C(=O)N[C@@H](C)C(=O)NCC(=O)NCC(N)=O)C(C)C)C(C)C)C(=O)O` [g639] (H-HSEGTFTSDYSKYLDSK([γGlu-Palmitoyl])RAEDFVEWLVAGG-NH2; N-terminus assumed), the EC50 in experiment [1] was 8210 nM.

For the molecule `CCCCCCCCCCCCCCCC(=O)N[C@@H](CCC(=O)NCCCC[C@H](NC(=O)[C@H](C)NC(=O)[C@H](C)NC(=O)[C@H](CCC(N)=O)NC(=O)CNC(=O)[C@H](CCC(=O)O)NC(=O)[C@H](CC(C)C)NC(=O)[C@H](Cc1ccc(O)cc1)NC(=O)[C@H](CO)NC(=O)[C@H](CO)NC(=O)[C@@H](NC(=O)[C@H](CC(=O)O)NC(=O)[C@H](CO)NC(=O)[C@@H](NC(=O)[C@H](Cc1ccccc1)NC(=O)[C@@H](NC(=O)CNC(=O)[C@H](CCC(=O)O)NC(=O)[C@H](C)NC(=O)[C@@H](N)Cc1cnc[nH]1)[C@@H](C)O)[C@@H](C)O)C(C)C)C(=O)N[C@@H](CCC(=O)O)C(=O)N[C@@H](Cc1ccccc1)C(=O)N[C@H](C(=O)N[C@@H](C)C(=O)N[C@@H](Cc1c[nH]c2ccccc12)C(=O)N[C@@H](CC(C)C)C(=O)N[C@H](C(=O)N[C@@H](CCCNC(=N)N)C(=O)NCC(=O)N[C@@H](CCCNC(=N)N)C(=O)NCC(=O)O)C(C)C)[C@@H](C)CC)C(=O)O` [Liraglutide, reference compound], the “BW day 14 (% change of vehicle mean)” value in experiment [3] (27 nmol/kg sc twice daily 14 days) is −13.3%. Moreover, in experiment [3] (27 nmol/kg, day 14), the BeHy is recorded as 345 u mol/l, the “FGF 21” value came to 2481 pg/mL, the HOMA was 2.8 and the “Hepatic TG” value was determined as 13.1 g TB/100 g tissue. For the same molecule, in experiment [3] (27 nmol/kg, day 14), the Insulin turned out to be 0.3 nM, the “Plasma Cholesterol” value was 3.75 mM, the “Plasma NEFA” value is on record as 0.24 Mm and the “Plasma TG” value was 0.24 mM. Further, in experiment [3] (27 nmol/kg, day 14, 4-hour fasting), the Glucose was 8.0 mM. For the same molecule, the “BW day 14 (% change of vehicle mean)” value in experiment [4] (27 nmol/kg sc twice daily for 14 days) is given as −14%. In experiment [4] (setting [5]), the “FGF 21” value was 2990 pg/mL, the HOMA is 3.51, the “Hepatic TG” value is 18.4 g TG/100 g tissue and the “Plasma Cholesterol” value amounted to 3.26 mM. In addition, in experiment [4] (setting [5]), the “Plasma NEFA” value stood at 0.29 mM and the “Plasma TG” value is listed as 0.28 mM. Also, in experiment [4] (setting [6]), the Glucose amounted to 7.7 mM and the Insulin was found to be 0.31 nM.

With `CCCCCCCCCCCCCCCC(=O)N[C@@H](CCC(=O)NCCCC[C@H](NC(=O)[C@H](CCC(=O)O)NC(=O)[C@H](CO)NC(=O)[C@H](Cc1ccc(O)cc1)NC(=O)[C@H](CC(=O)O)NC(=O)[C@H](CO)NC(=O)[C@@H](NC(=O)[C@H](Cc1ccccc1)NC(=O)[C@@H](NC(=O)CNC(=O)[C@H](CCC(N)=O)NC(=O)[C@H](CO)NC(=O)[C@@H](N)Cc1c[nH]cn1)[C@@H](C)O)[C@@H](C)O)C(=O)N[C@@H](CC(C)C)C(=O)N[C@@H](CC(=O)O)C(=O)N[C@@H](CO)C(=O)N[C@@H](CCC(=O)O)C(=O)N[C@@H](CCCNC(=N)N)C(=O)N[C@@H](C)C(=O)N[C@@H](CCCNC(=N)N)C(=O)N[C@@H](CC(=O)O)C(=O)N[C@@H](Cc1ccccc1)C(=O)N[C@H](C(=O)N[C@@H](C)C(=O)N[C@@H](Cc1c[nH]c2ccccc12)C(=O)N[C@@H](CC(C)C)C(=O)N[C@H](C(=O)N[C@@H](C)C(=O)NCC(=O)NCC(N)=O)C(C)C)C(C)C)C(=O)O` [g802] (H-HSQGTFTSDYSEK([γGlu-Palmitoyl])LDSERARDFVAWLVAGG-NH2; N-terminus assumed), the EC50 in experiment [2] was 0.0364 nM.

By EC50 is commonly meant the midpoint of the concentration-response curve.
